Measured values from the supplement of paper PMC11208160.

assay: recombinant barcode read abundance after kanamycin selection (control-corrected) (log10(CPM+1)); higher = more efficient recombination; sequences stand for … in AGTGCAGAGAAAATCGGCCAGTTTTCTCTGCCTGCAGTCCGCATGCCGT…AGATTTATGCAGCGGACTGCCTTTCTCCCAAAGTGATAAACCGGACAGTATCATGGACCGGTTTTCCCGGTAATCCGTATTTGCAAGGTTGGTTTCACT; site = the 11-nt target
Protocol: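 Pooled E. coli target-specificity screen for the IS621 bridge recombinase. Each library plasmid pairs an 11-nt target (CT core) with a bridge RNA whose target-binding loop (9-nt LTG + 4-nt RTG) is reprogrammed; the rest of the 177-nt WT IS621 bridge RNA scaffold is fixed. The plasmid is co-electroporated with a WT donor plasmid; recombinase is induced with 0.1 mM IPTG and recombinants are selected on kanamycin. Recombinant barcodes are sequenced, converted to CPM, averaged over two biological replicates and corrected by the unselected control CPM. Molecule = full bridge RNA written as DNA: LTG = specificity nt 1-9, RTG = reverse complement of specificity nt 8-11, in the WT scaffold.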
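Also: IS621 recombinase and bridge RNA in Escherichia coli cells.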

Sequence	recombinant barcode read abundance (log10)
GACTGCCCTTGGGTTCTAACCTGTTGCCT (site GACTGCCCTAG)	0.166
CTCCGCTCTTGGGTTCTAACCTGTTGCCT (site CTCCGCTCTAG)	2.28
CTCACACCTTGGGTTCTAACCTGTTGCAG (site TGTCATGCTAC)	0.331
CCAAGCACTTGGGTTCTAACCTGTTGCCT (site CCAAGCACTAG)	0.624
AGTCCACCTTGGGTTCTAACCTGTTGCCT (site GGTCCACCTAG)	0.132
TGCGCCTCTTGGGTTCTAACCTGTTGCTG (site TACGCCTCTTA)	0.108
GGCACCGCTTGGGTTCTAACCTGTTGCCT (site GGCACTGCTAG)	0.0527
TAGCACCCTTGGGTTCTAACCTGTTGCCG (site TAGCACCCTCG)	1.19
GGACCTCCTTGGGTTCTAACCTGTTGCAT (site GGACCTCCTAG)	0.0883
CTATAGGCTTGGGTTCTAACCTGTTGCCT (site ATATACGCTAG)	0.0845
GGACCTCCTTGGGTTCTAACCTGTTGCGT (site GGACCTCCTAC)	3.05
ATGCCGACTTGGGTTCTAACCTGTTGCCT (site ATGCCGACTAG)	1.02
CTTTCGCCTTGGGTTCTAACCTGTTGCCT (site CTGTCGCCTAG)	0.0968
AGTGAACCTTGGGTTCTAACCTGTTGCCT (site AGTGAACCTAG)	1.84
TTGGCGACTTGGGTTCTAACCTGTTGCCA (site TTGACGACTTG)	0.221
AAAGTCCCTTGGGTTCTAACCTGTTGCCT (site CAAGTCCCTAG)	0.361
TCTTGGACTTGGGTTCTAACCTGTTGCTC (site TCTTGGACTCA)	0.153
CGGCCACCTTGGGTTCTAACCTGTTGCTT (site AATGGGGCTCT)	0.0969
GACCGTGCTTGGGTTCTAACCTGTTGCCT (site GACCGCGCTAG)	0.103
CTCCCGACTTGGGTTCTAACCTGTTGCGC (site AGAGTAGCTTA)	0.119
ACCATACCTTGGGTTCTAACCTGTTGCAT (site TAGGATTCTGC)	0.124

Sequence	recombinant barcode read abundance (log10)
AGGAGTCCTTGGGTTCTAACCTGTTGCTG (site AGGAGTCCTCA)	2.08
TCTTGGACTTGGGTTCTAACCTGTTGCAC (site TCTTGGACTGT)	0.104
CTAATTACTTGGGTTCTAACCTGTTGCAA (site CTAATTACTTT)	0.094
CTCTCATCTTGGGTTCTAACCTGTTGCCT (site CTCTCATCTAA)	0.125
TAGTGTGCTTGGGTTCTAACCTGTTGCTT (site TAGTGTGCTAA)	0.31
ACCTTAGCTTGGGTTCTAACCTGTTGCGG (site ACCTTAGCTCC)	1.79
CTCGATTCTTGGGTTCTAACCTGTTGCAT (site CTCCATTCTAT)	0.194
TACACTACTTGGGTTCTAACCTGTTGCAT (site TACACTACTAT)	0.131
GCGTCTACTTGGGTTCTAACCTGTTGCCT (site GCGTGGACTAG)	0.051
TGAGAAGCTTGGGTTCTAACCTGTTGCCT (site TGAGAAGCTAG)	1.1
GCACGAACTTGGGTTCTAACCTGTTGCCT (site GCGCGAACTAG)	0.0581
TATCAGACTTGGGTTCTAACCTGTTGCAG (site TCTCAGGCTCT)	0.121
GTAAGTGCTTGGGTTCTAACCTGTTGCAT (site GTAAGTGCTAT)	0.829
ATCGCCTCTTGGGTTCTAACCTGTTGCCT (site ATCCCCTCTAG)	0.328
TTCAGCCCTTGGGTTCTAACCTGTTGCCT (site TACAGCCCTAG)	0.456
TAGAAGCCTTGGGTTCTAACCTGTTGCCT (site GAGAAGCCTAG)	0.06
GGTGGGTCTTGGGTTCTAACCTGTTGCCT (site GGTGGGTCTAC)	0.123
ACATTAGCTTGGGTTCTAACCTGTTGCTG (site ACATTAGCTCA)	0.603
GTGCGCCCTTGGGTTCTAACCTGTTGCGT (site GTGCGCCCTAC)	2.13
CGGATAGCTTGGGTTCTAACCTGTTGCCT (site CGGATTGCTAG)	0.553
AAGAGCACTTGGGTTCTAACCTGTTGCCT (site GAGAGCACTAG)	0.0862

Sequence	recombinant barcode read abundance (log10)
TATTGGACTTGGGTTCTAACCTGTTGCAC (site TATTGGACTAT)	0.0463
AGTAAGACTTGGGTTCTAACCTGTTGCTT (site AGTAAGACTAG)	0.202
GAGCTACCTTGGGTTCTAACCTGTTGCCT (site GAGCTACCTGG)	0.172
AGTATCGCTTGGGTTCTAACCTGTTGCGG (site AGTTTCGCTCC)	0.246
CTTCATCCTTGGGTTCTAACCTGTTGCCT (site CTTCAACCTAG)	0.0199
GACGCTTCTTGGGTTCTAACCTGTTGCAT (site GACGCAACTAT)	1
TAGGCTCCTTGGGTTCTAACCTGTTGCAC (site TAGGCTCCTCT)	0.0904
CATCGGGCTTGGGTTCTAACCTGTTGCAG (site CGTCGGGCTCT)	0.00527
ACTCACTCTTGGGTTCTAACCTGTTGCCT (site ACTCACTCTAG)	2.04
GATCAATCTTGGGTTCTAACCTGTTGCCT (site GAGCAAACTAG)	0.0249
ATGTAGGCTTGGGTTCTAACCTGTTGCCT (site ATGTAGGCTAG)	0.137
TCTTTAGCTTGGGTTCTAACCTGTTGCAG (site TCTTTAGCTCT)	0.236
GTCCGTCCTTGGGTTCTAACCTGTTGCAT (site GTCCGTCCTAT)	1.77
GGCAGACCTTGGGTTCTAACCTGTTGCCT (site GGCAGACCTAG)	1
CTATTGTCTTGGGTTCTAACCTGTTGCGT (site CTATTGTCTCC)	0.019
TCTAGTCCTTGGGTTCTAACCTGTTGCCT (site TCTAGACCTTG)	0.418
CGTCAGCCTTGGGTTCTAACCTGTTGCCT (site CGTCAACCTAG)	0.0431
CGCTGGACTTGGGTTCTAACCTGTTGCCT (site CGCTAGACTAG)	0.0452
GTCGGCGCTTGGGTTCTAACCTGTTGCCT (site GTCGGCGCTAG)	0.912
TAACCTACTTGGGTTCTAACCTGTTGCAT (site TAACGTACTAT)	0.169
GGGGCACCTTGGGTTCTAACCTGTTGCAT (site GGGGCACCTAC)	0.357

Sequence	recombinant barcode read abundance (log10)
ACCGCTTCTTGGGTTCTAACCTGTTGCCT (site ACCGCTTCTAG)	0.494
TAGGTCACTTGGGTTCTAACCTGTTGCAT (site TAGATCACTAT)	0.337
CCTCGTCCTTGGGTTCTAACCTGTTGCCC (site TAGGACTCTAT)	0.00798
GGTATGACTTGGGTTCTAACCTGTTGCCT (site TGTATGACTAG)	0.0723
GAGAGGTCTTGGGTTCTAACCTGTTGCCT (site GAGAGGTCTAA)	0.298
AAGGTCCCTTGGGTTCTAACCTGTTGCGG (site AAGGTCCCTCC)	3.32
AGTGCGTCTTGGGTTCTAACCTGTTGCCT (site CGTGCGTCTAG)	0.043
AAGCCGCCTTGGGTTCTAACCTGTTGCTT (site TCAATAGCTGT)	0.35
AAATGGTCTTGGGTTCTAACCTGTTGCTA (site AAATGGTCTTA)	1.69
TCCTGTCCTTGGGTTCTAACCTGTTGCAT (site TCCTGTACTAG)	0.0187
ACGAGTCCTTGGGTTCTAACCTGTTGCTT (site ACGATTCCTAA)	0.0892
GAGCGAGCTTGGGTTCTAACCTGTTGCTA (site GAGCGAGCTTA)	1.31
GCCGAGTCTTGGGTTCTAACCTGTTGCCT (site GCCGAGTCTAG)	1.03
GTTGCGGCTTGGGTTCTAACCTGTTGCCT (site GTTTCGGCTAG)	0.34
CAATCCTCTTGGGTTCTAACCTGTTGCTA (site CAATCCTCTTA)	0.443
CAAACATCTTGGGTTCTAACCTGTTGCCT (site CAAACAACTAG)	0.129
ACTTTGCCTTGGGTTCTAACCTGTTGCCT (site ACGTTGCCTAG)	0.0319
GTGAGGTCTTGGGTTCTAACCTGTTGCCT (site GTGAGGTCTAC)	0.343
CACAAGTCTTGGGTTCTAACCTGTTGCGT (site CACAAGTCTAC)	1.38
